This note sets out measurements from patent US20030130340A1, “Novel benzothiophene derivatives” (Daiichi Pharmaceutical Co. Ltd., priority 2000, published 2003).

Data set [1] addresses T1, steroid 17α-hydroxylase and/or steroid C17-20 lyase (Rattus norvegicus, UniProt P11715).
T1 construct: the testis of rats (SD, male) was homogenized and centrifuged to obtain microsome; from tissue; host or cells: rat (SD, male) testis microsomes
T1 sequence (P11715 1-507): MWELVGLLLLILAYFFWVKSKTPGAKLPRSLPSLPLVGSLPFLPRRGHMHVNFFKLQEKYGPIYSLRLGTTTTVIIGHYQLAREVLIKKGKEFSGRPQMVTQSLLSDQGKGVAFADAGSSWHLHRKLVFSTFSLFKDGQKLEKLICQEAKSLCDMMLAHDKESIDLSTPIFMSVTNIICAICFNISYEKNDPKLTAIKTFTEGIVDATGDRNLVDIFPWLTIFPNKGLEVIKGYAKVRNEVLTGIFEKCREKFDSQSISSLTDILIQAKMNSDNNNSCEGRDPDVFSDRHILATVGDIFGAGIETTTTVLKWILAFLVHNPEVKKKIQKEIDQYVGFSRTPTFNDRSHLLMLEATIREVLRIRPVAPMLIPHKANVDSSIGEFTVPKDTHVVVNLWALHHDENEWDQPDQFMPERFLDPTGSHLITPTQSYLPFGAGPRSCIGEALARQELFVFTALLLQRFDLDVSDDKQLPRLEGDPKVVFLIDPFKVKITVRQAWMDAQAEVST
Briefly: Measurement of steroid 17α-hydroxylase and/or steroid C17-20 lyase inhibitory activity (rat testis microsome, HPLC). The format is biochemical. Particulars: Enzyme source: rat testis microsome; test compound 300 nM; substrate 25 μM 17α-hydroxyprogesterone; NADPH 500 μM; 20 minutes at 37° C. As to the method:
An experiment was carried out according to the method of T. Sergejew and R. W. Hartmann (J. Enzyme Inhibition, 8, 113(1994)). That is, the testis of rats (SD, male) was homogenized and centrifuged to obtain microsome. […] After the addition of 100 μl of microsome protein solution, the protein contentration was adjusted to 0.1 mg/ml by 50 mM phosphate buffer solution (pH 7.4), 140 μl of 125 nmol NADPH solution, and 10 μl of 6.25 nmol 17α-hydroxyprogesterone, the mixture was incubated for 20 minutes at 37° C. 50 μl of 1N hydrochloric acid and 1000 μl of ethyl acetate were sequentially added to the mixture. The mixture was shaken and centrifuged. The ethyl acetate layer was washed with 250 μl of 50 mM phosphate buffer solution (pH 7.4) and 50 μl of 1N hydrochloric acid, centrifuged, and concentrated. The concentrate was dissolved in 100 μl of acetonitrile. 10 μl of this solution was charged to high performance liquid chromatography. The amounts of the substrate and the product (androstenedione and testosterone) were measured to calculate the enzyme activity. In this experiment, a sample without the test compound was provided as a control group. Steroid 17α-hydroxylase and/or steroid C17-20-lyase inhibitory activity (%) was calculated by the following equation (1) using the amounts of the substrate and the product obtained.

Molecules are shown by their SMILES. Counter-ions that a name gives are not always drawn.

Broadly, the inhibition is the relative decrease from the control value, in per cent. Low values mean a weak effect, high ones a strong effect. The term melting point denotes the temperature of the solid-liquid transition.

For the molecule `COc1ccc2c(-c3ccccn3)csc2c1.Cl` [Example 3, 2-[6-methoxybenzo[b]thiophen-3-yl]pyridine hydrochloride], the melting point was 205.5 to 207 °C (dec.). The same molecule had an inhibition at 0.3 µM in data set [1] of 9%.
Taken in the same sequence, the figures for `Oc1ccc2c(-c3ccncc3)csc2c1` [Example 6, 3-(4-pyridyl)benzo[b]thiophen-6-ol] were 246 to 250 °C and 3%.
The molecule `Oc1cccc(-c2ccc3c(-c4cccnc4)csc3c2)c1` [Example 17, 3-[3-(3-pyridyl)benzo[b]thiophen-6-yl]-phenol] displayed a melting point of 188.5 to 189.5 °C. In addition, the inhibition at 0.3 µM in data set [1] turned out to be 100%.
Taken in the same sequence, the figures for `c1cncc(-c2ccc3c(-c4cccnc4)csc3c2)c1` [Example 20, 3-[6-(3-pyridyl)benzo[b]thiophen-3-yl]pyridine] were 131.5 to 133 °C and 100%.
On to `c1cncc(-c2csc3cc(C4CCCCC4)ccc23)c1` [Example 50, 3-(6-cyclohexylbenzo[b]thiophen-3-yl)pyridine hydrochloride], for which the inhibition at 0.3 µM in data set [1] amounted to 80%.
In the case of `CC(C)Oc1cccc(-c2ccc3c(-c4cccnc4)csc3c2)c1` [Example 51, 3-[6-(3-isopropyloxyphenyl)benzo[b]thiophen-3-yl]pyridine hydrochloride], the inhibition at 0.3 µM in data set [1] is 37%.
In data set [1], `CCCc1ccc2c(-c3cccnc3)csc2c1` [Example 52, 3-(6-propylbenzo[b]thiophen-3-yl)pyridine hydrochloride] showed an inhibition at 0.3 µM of 93%.
On the same count and under the same terms, with `O=[N+]([O-])c1cccc(-c2ccc3c(-c4cccnc4)csc3c2)c1` [Example 53, 3-[6-(3-nitrophenyl)benzo[b]thiophen-3-yl]pyridine] the figure was 86%.
Still for that read-out and setting: as for `CC(C)Nc1ccc2c(-c3cccnc3)csc2c1` [Example 54, isopropyl[3-(3-pyridyl)benzo[b]thiophen-6-yl]amine], the figure is 98%; as for `c1cncc(-c2csc3cc(N4CCOCC4)ccc23)c1` [Example 55, 4-[3-(3-pyridyl)benzo[b]thiophen-6-yl]morpholine dihydrochloride], 94%.
On the same count and under the same terms, with `CC(=O)Nc1ccc2c(-c3cccnc3)csc2c1` [Example 56, N1-[3-(3-pyridyl)benzo[b]thiophen-6-yl]acetamide] the figure was 63%.
